Counter-ions that a name gives are not always drawn.
How the values were obtained:
[1] = test system: sheep blood cells; assay: Influence of washing operation on survival rate of blood cells after 24 h immersion; settings: sheep blood cells immersed 24 h at 37° C., diluted 2 folds with PBS, washed by centrifugation (FIG. 11)
[2] = test system: sheep blood cells; assay: Recovery survival rate of blood cells after cryopreservation in liquid nitrogen, hemolysis by microplate reader; type: cell-based
Experimental: (§1) (1) The respective cell cryopreservation protective solutions (consisting merely of PBS and the effective ingredients for cryopreservation) were prepared according to the following Table 9; (2) about 1×10^7 sheep blood cells or 20 μL rabbit blood was taken and added into about 1.5 mL to 1.8 mL of the cell cryopreservation protective solutions, and the suspensions were put into suitable freezing tubes and directly placed in liquid nitrogen for cryopreservation; (3) after cryopreservation, the cells were thawed and recovered at 37° C.; the survival rates were investigated by using a microplate reader (trademark: TECAN, model: […] 200 PRO) to determine the hemolysis in each sample, and the method for determining hemolysis is as follows: The recovered samples, a sample of PBS and a sample of water were placed in a centrifuge for centrifugation (2000 r/min, 10 min), and thereafter the supernatants were taken; the light transmittance thereof was measured using the microplate reader and the survival rates of the blood cells were calculated.

[3] = test system: rabbit blood; assay: Recovery survival rate of blood after cryopreservation in liquid nitrogen, hemolysis by microplate reader; type: cell-based
Experimental: as §1

[4] = effective ingredient 1 mass % in PBS
[5] = effective ingredient 2 mass % in PBS
[6] = effective ingredient 3 mass % in PBS
[7] = effective ingredient 4 mass % in PBS
[8] = effective ingredient 5 mass % in PBS
[9] = effective ingredient 6 mass % in PBS
[10] = effective ingredient 40 mass % in PBS

Row | Structure (SMILES) | Recovery cell survival rate [2, 4] | Recovery cell survival rate [2, 5] | Recovery cell survival rate [2, 6] | Recovery cell survival rate [2, 7] | Recovery cell survival rate [2, 8] | Recovery cell survival rate [2, 9] | Recovery cell survival rate [3, 9] | also measured
1 | C[N+](C)(C)CC(=O)[O-] [Betaine, trimethylammonium acetate] | 25.4% | 44.6% | 49.3% | 64.8% | 70.6% | 88.1% | 85.4% | Survival rates of blood cells before and after washing [1]: not affected; Recovery cell survival rate [3, 7]: 55.2%; Recovery cell survival rate [3, 8]: 75.1%; Recovery cell survival rate ([3]; effective ingredient 15 mass % in PBS): 89.0%
2 | C=CC(=O)NCCC[N+](C)(C)CCC(=O)[O-] [Carboxybetaine (meth)acrylamide, (3-acryloylaminopropyl)-(2-carboxyethyl)-dimethylammonium] |  |  |  | 71.3% |  |  | 65.1% | 
3 | C[S+](C)[O-] [DMSO, Dimethyl sulfoxide] | 8.9% | 24.4% | 32.4% | 44.4% | 57.0% | 40.8% |  | 
4 | OCC(O)CO [Glycerol] | 21.7% | 36.5% | 43.5% | 31.8% | 8.8% | 14.4% |  | Recovery cell survival rate ([2]; effective ingredient 10 mass % in PBS): 35.8%; Recovery cell survival rate [2, 10]: 48.0%; Recovery cell survival rate [3, 10]: 32.6%
5 | C[N+](C)(C)C[C@H](O)CC(=O)[O-] [L-carnitine, 3-carboxy-2-hydroxy-N,N,N-trimethyl-1-propanaminium inner salt (2R)] |  |  |  |  |  | 84.0% | 84.3% | 
6 | C=C(C)C(=O)OCCOP(=O)([O-])OCC[N+](C)(C)C [Phosphorylcholine derivative, 2-(methacryloyloxy)ethyl-2-(trimethylammonio)ethyl phosphate] |  |  |  | 80.9% |  |  | 73.9% | 
7 | C=C(C)C(=O)OCC[N+](C)(C)CCCS(=O)(=O)[O-] [Sulfobetaine, 3-[dimethyl-[2-(2-methylprop-2-enoyloxy)ethyl]azaniumyl]propane-1-sulfonate] |  |  |  | 75.6% |  |  | 73.6% | 
